What was measured:
[1] = tested on: TNF-α production of LPS-activated monocytes; test: TNF-α production of LPS-activated monocytes (sandwich ELISA); format: cell-based; conditions: LPS-activated human monocytes
Description: (§1) In order to investigate the immunomodulatory efficacy of the solutions produced, human monocytes were isolated from peripheral blood mononuclear cells (PBMCs) and were activated with bacterial LPS (lipopolysaccharide). The concentration of TNF-α and IL-12 in the supernatant liquors from all cell cultures was determined by means of sandwich ELISAs (Biosource Europe, Fleurus, Belgium).

[2] = tested on: IL-12 production of LPS-activated monocytes; test: IL-12 production of LPS-activated monocytes (sandwich ELISA); format: cell-based; conditions: LPS-activated human monocytes
Description: as §1

[3] = Stability testing of the EM 12 solution over 2 weeks; format: physicochemical; conditions: after 2 weeks; 200 μg/ml in 5% glucose, pH 5.5, room temperature
Text: The solution was stored at room temperature. The pH of the final solution was 5.5.
Portions of the solutions were repeatedly taken as samples for analysis over a period of 2 weeks.

[4] = Spontaneous hydrolysis of EM 12 in aqueous solution; format: physicochemical
[5] = Arch. Pharm. 321, 371 (1988); cited from earlier work
[6] = tested on: severe aphthous stomatitis; conditions: cited from earlier work
[7] = tested on: cutaneous lupus erythematodes, pyoderma gangrenosum, urogenital ulcers in Bechet's syndrome, ulcerations in those infected with HIV; conditions: without resulting in general immunosuppression; cited from earlier work

O=C1CCC(N2Cc3ccccc3C2=O)C(=O)N1 (racemic) [EM 12, 3-(1-oxo-1,3-dihydroisoindol-2-yl)-piperidine-2,6-dione]
TNF-α concentration in supernatant ([1]; EM 12 2 μg/ml): 9915 pg/mL
TNF-α concentration in supernatant ([1]; EM 12 10 μg/ml): 9548 pg/mL
IL-12 concentration in supernatant ([2]; EM 12 2 μg/ml): 528 pg/mL
IL-12 concentration in supernatant ([2]; EM 12 10 μg/ml): 464 pg/mL
EM 12 present in solution after storage [3]: still present
biological efficacy after storage [3]: retained its full biological efficacy
spontaneous hydrolysis ([4]; aqueous EM 12 solution, pH less than or equal to 5.5): does not occur
tendency to undergo spontaneous hydrolysis ([4]; aqueous solutions): tendency of EM 12 to undergo spontaneous hydrolysis

O=C1CCC(N2C(=O)c3ccccc3C2=O)C(=O)N1 (centres unmarked) [Thalidomide, 2-(2,6-dioxo-piperidin-3-yl)-isoindole-1,3-dione]
solubility in water [5]: low
efficacy vs classical immunosuppressants [6]: superior
efficacy [7]: good efficacy
